Results on twelve compounds are retold here after US7820692B2, “Tetrahydro isoquinoline derivatives, preparation methods and medicinal uses thereof” (China Pharmaceutical University, priority 2006, dated 2010).

Series [1] has as its system Kuming mice. Nature of the series: Mice writhing assay (acetic acid) analgesic test. The class given is in vivo. Conditions: subcutaneous injection, 0.6% acetic acid after 30 min, writhing within 15 min. The procedure: (§1) Analgesic efficacy of the subject compound is determined by using model derived from mice hot plate method and mice writhing method (Methodology of Pharmacological Experiment, edition II, Xu Shuyun, People Medical Publishing Company, 1991).
(§2) • (1) Selection of normal mice: the test room temperature is controlled at about 22° C., temperature of the hot plate of an pain threshold dector is regulated to 55° C., the duration from the moment the mice is put on the hot plate to the moment the mice start to lick the hind paw is recorded as pain threshold value, the test is repeated twice at interval of 20 min, and the mice with average pain threshold value no more than 30 sec is qualified mice. • (2) Experimental mice: the qualified mice are randomly divided into groups each having 10 mice, and subjected to subcutaneous injection. • Each group is tested for mice pain response time once every 5, 15, 30, 50, and 60 minute after administration, and the medicine is believed to be effective which response time beyond 1 min. • Mice Writhing Assay • I-6 is administered via subcutaneous injection, then 0.6% acetic acid solution (10 ml/kg) is administered after 30 min, and the number of the mice writhing within 15 min is recorded. 3.
On the technique in general: An intraperitoneal irritant provokes the stretching counted in writhing tests.

The target in a further series is μ-opioid receptor (Homo sapiens, UniProt P35372). Nature of the series: Radioligand receptor binding assay, competition with [3H]diprenorphine, μ-receptor. The conditions noted are these: for inhibition at 1 µM: read-out: inhibition rate of medicine at 1 × 10^−6 M (μ); for Ki: Ki=IC50/(1+[L]/Kd); for IC50: competition binding, μ-opioid receptor; for receptor selectivity μKi/κKi: ratio of μ Ki to κ Ki. As for the experimental part: (§3) The experiment test tubes are divided into total binding tubes and non-specific binding tubes, and several groups of sample tubes added with competitive ligand in different concentrations are provided. The total binding tube is added with expressed membrane receptor protein equivalent to 20 μg and [^3H] diprenorphine (0.5 nM) (1.44 Pbq/mol broad spectrum opioid antagonist, Amersham), the corresponding non-specific binding tubes are further added with 1 μM Naloxone (broad spectrum opioid antagonist, Sigma), the sample tubes are added with different concentrations compounds which are to be screened, the final volume is regulated to 100 μl with 50 mM Tris(Amresco)-HCl (pH 7.4). Incubation is performed at 30° C. for 30 min, and the tubes are placed into ice water to stop reaction. Negative pressure filter is performed in Millipore sample collector via GF/(Whatman) glass fiber filter paper. Ice cold 50 mM Tris-HCl (pH 7.4) is used to wash the filter paper for three times, each for 4 ml; Dry the filter paper and place it in 0.5 ml Eppendorff tube, and add 0.5 ml of lipophilic scintillator liquid (Reagent No. 1 Factory Of Shanghai Chemical Reagent Co. Ltd). Beckman LS 6500 multifunctional liquid scintillation counter is adopted for measuring radiation intensity, calculating inhibition rate is calculated, each concentration has three duplicated tubes, and each tube is independently tested for 3-4 times.
(§4) IC50 value is calculated by software Prism 4.0.
(§5) Ki=IC50/(1+[L]/Kd), ([L] is the concentration of added marked ligand, and Kd is equilibrium dissociation constant of radioligand).

A further series has as its target κ-opioid receptor (Homo sapiens, UniProt P41145). Nature of the series: Radioligand receptor binding assay, competition with [3H]diprenorphine, κ-receptor. The conditions noted are these: for Ki: Ki=IC50/(1+[L]/Kd); for dpm: competition binding with κ-receptor, [3H]diprenorphine 0.5 nM; for dpm / inhibition at 10 µM / inhibition rate %: compound at 1 × 10^−5 M; for IC50: competition binding, κ-opioid receptor; for inhibition at 10 µM: read-out: inhibition rate %. The procedure: as §3, §4, §5

The subject of series [2] is Kuming mice. Nature of the series: Mice hot plate method analgesic test. The class given is in vivo. Conditions: for Analgesic experiment result, Mice hot plate method: subcutaneous injection, hot plate 55° C., value with range in brackets. The procedure: as §1
Experiment Animal: Kuming Mice (Female, 18-22 g)
as §2
Background: Thermal pain tests record how soon the animal reacts.

The subject of series [3] is Kuming mice. Nature of the series: Analgesic tolerance test (hot plate, 9 days administration). The class given is in vivo. Conditions: morphine 7 mg/kg subcutaneous injection. The procedure:
Kuming mice (18-20 g, male) are selected for test, and divided into physiological saline group, morphine group, and I-6 group.
physiological saline group: subcutaneous administration, 0.2 mL for each mice.
Morphine group: Day 1-3, subcutaneous injection, 7 mg/kg • Day 4-7, subcutaneous injection, 10 mg/kg • Day 8-9, subcutaneous injection, 15 mg/kg I-6 group: Day 1-9, subcutaneous injection, 25 μg/kg
Hot plate method in mice is adopted as model, administration lasts for 9 days, analgesic effects before and after administration are determined every day, and if analgesic effect is attenuated after continuous administration of 3 days, the drug concentration will be increased, and if analgesic effect don't change, the drug concentration will not be changed.

[4] abbreviates: 1 × 10^−6 M, printed in the IC50 (M) μ column.

Entries after “also recorded” stand apart in the source; their conditions may differ. Marks after values point to notes of the source that are not given here.

Regarding `O=C1CC(C(=O)N2CCc3ccccc3C2CN2CCCC2)c2ccccc21` (centres unmarked) [I-1, 1-(pyrrolidine-1-methyl)-2-(2,3-dihydro-inden-3-keto-1-carbonyl)-1,2,3,4-tetrahydroisoquinoline], in the series with Kuming mice [1], the “Analgesic experiment result, Mice writhing assay” value is 26.303(16.807-41.165) ug/kg. For the same compound, at μ-opioid receptor (setting [4]), the inhibition (as a rule, the drop in the measured response relative to a control, in per cent) at 1 µM was 18.7%. On κ-opioid receptor, the Ki (usually the equilibrium dissociation constant of an inhibitor or competing ligand from its target) was 0.438 nM; the dpm came to 212.91 dpm; the IC50 – broadly, the concentration that gives 50% inhibition – came to 1.53 nM; the inhibition at 10 µM was determined as 100%. Also, the “analgesic efficacy compared with morphine” value in the series on Kuming mice [2] (mice hot plate method and mice writhing method) is “powerful analgesic efficacy”. Besides, the “Analgesic experiment result, Mice hot plate method” value in the series with Kuming mice [2] was 44.147(25.134-77.545) ug/kg.
Turning to `COc1cc2c(cc1OC)C(C(=O)N1CCc3ccccc3C1CN1CCCC1)CC2=O` (centres unmarked) [I-5, 1-(pyrrolidine-1-methyl)-2-(5,6-dimethoxy-2,3-dihydro-inden-3-keto-1-carbonyl)-1,2,3,4-tetrahydroisoquinoline], on μ-opioid receptor, the Ki came to 106 nM, the IC50 came to 318 nM and the “receptor selectivity μKi/κKi” value turned out to be 79. For the same compound, on κ-opioid receptor, the Ki is 1.34 nM, the dpm came to 260.58 dpm, the IC50 worked out at 4.69 nM and the inhibition at 10 µM was 99.5%.
Regarding `COc1ccc2c(c1)C(C(=O)N1CCc3ccccc3C1CN1CCCC1)CC2=O` (centres unmarked) [I-13, 1-(pyrrolidine-1-methyl)-2-(6-methoxy-2,3-dihydro-inden-3-keto-1-carbonyl)-1,2,3,4-tetrahydroisoquinoline], at μ-opioid receptor, affinity was put at a Ki of 133 nM, the IC50 came out at 399 nM and the “receptor selectivity μKi/κKi” value stood at 146. Also, at κ-opioid receptor, the affinity corresponds to a Ki of 0.909 nM, the dpm worked out at 211.54 dpm, the IC50 worked out at 3.18 nM and the inhibition at 10 µM worked out at 100%.
Consider `COc1ccc2c(c1)C(CN1CCCC1)N(C(=O)C1CC(=O)c3ccccc31)CC2` (centres unmarked) [I-14, 7-methoxy-1-(pyrrolidine-1-methyl)-2-(2,3-dihydro-inden-3-keto-1-carbonyl)-1,2,3,4-tetrahydroisoquinoline], for which the inhibition at 1 µM at μ-opioid receptor (setting [4]) is 14.6%. On κ-opioid receptor, the inhibitory constant (Ki) was 270 nM, the dpm was 972.69 dpm, the concentration for half-maximal inhibition (IC50) was 912 nM and the inhibition at 10 µM was determined as 77.3%.
For `COc1ccc2c(c1)C(CN1CCCC1)N(C(=O)C1CC(=O)c3cc(OC)c(OC)cc31)CC2` (centres unmarked) [I-15, 7-methoxy-1-(pyrrolidine-1-methyl)-2-(5,6-dimethoxy-2,3-dihydro-inden-3-keto-1-carbonyl)-1,2,3,4-tetrahydroisoquinoline], at μ-opioid receptor (setting [4]), the “inhibition rate of medicine at 1 × 10^−6 M (μ)” value is 11.7% (^−6)^a. In addition, at κ-opioid receptor, the dpm is 820.16 dpm and the inhibition rate % is on record as 82.3%.
As to `COc1ccc2c(c1)C(CN1CCCC1)N(C(=O)C1CC(=O)c3ccc(Cl)cc31)CC2` (centres unmarked) [I-18, 7-methoxy-1-(pyrrolidine-1-methyl)-2-(6-chloro-2,3-dihydro-inden-3-keto-1-carbonyl)-1,2,3,4-tetrahydroisoquinoline], the melting point – broadly, the temperature of the solid-liquid transition – fell in the range of 151 to 153 °C. Further, at μ-opioid receptor (setting [4]), the inhibition at 1 µM was found to be 14%. In addition, at κ-opioid receptor, the inhibitory constant (Ki) worked out at 17.1 nM, the dpm was determined as 281.00 dpm, the IC50 stood at 59.9 nM and the inhibition at 10 µM came to 100%.
With `COc1ccc2c(c1)C(C(=O)N1CCc3ccc(OC)cc3C1CN1CCCC1)CC2=O` (centres unmarked) [I-19, 7-methoxy-1-(pyrrolidine-1-methyl)-2-(6-methoxy-2,3-dihydro-inden-3-keto-1-carbonyl)-1,2,3,4-tetrahydroisoquinoline], at κ-opioid receptor, the dpm was 799.91 dpm and the inhibition rate % turned out to be 82.9%.
`COc1cc2c(cc1OC)C(CN1CCCC1)N(C(=O)C1CC(=O)c3ccccc31)CC2` (centres unmarked) [I-26, 6,7-dimethoxy-1-(pyrrolidine-1-methyl)-2-(2,3-dihydro-inden-3-keto-1-carbonyl)-1,2,3,4-tetrahydroisoquinoline]: at κ-opioid receptor, the dpm stood at 1883.77 dpm and the inhibition rate % is listed as 51.9%.
For `COc1cc2c(cc1OC)C(CN1CCCC1)N(C(=O)C1CC(=O)c3cc(OC)c(OC)cc31)CC2` (centres unmarked) [I-27, 6,7-dimethoxy-1-(pyrrolidine-1-methyl)-2-(5,6-dimethoxy-2,3-dihydro-inden-3-keto-1-carbonyl)-1,2,3,4-tetrahydroisoquinoline], in that order: 5257.44 dpm and 0%.
For `COc1cc2c(cc1OC)C(CN1CCCC1)N(C(=O)C1CC(=O)c3ccc(Cl)cc31)CC2` (centres unmarked) [I-30, 6,7-dimethoxy-1-(pyrrolidine-1-methyl)-2-(6-chloro-2,3-dihydro-inden-3-keto-1-carbonyl)-1,2,3,4-tetrahydroisoquinoline], in that order: 2269.71 dpm and 40.6%.
For `COc1ccc2c(c1)C(C(=O)N1CCc3cc(OC)c(OC)cc3C1CN1CCCC1)CC2=O` (centres unmarked) [I-31, 6,7-dimethoxy-1-(pyrrolidine-1-methyl)-2-(6-methoxy-2,3-dihydro-inden-3-keto-1-carbonyl)-1,2,3,4-tetrahydroisoquinoline], in that order: 3271.85 dpm and 11.2%.
As for `CN1CC[C@]23c4c5ccc(O)c4O[C@H]2[C@@H](O)C=C[C@H]3[C@H]1C5` [Morphine, morphine], in the series with Kuming mice [1], the “Analgesic experiment result, Mice writhing assay” value is given as 0.840(0.558-1.265) mg/kg. The “analgesic effect on continuous administration” value with Kuming mice [3] (Day 3) was “no significant analgesic effect; also recorded: tolerance and efficacy of zero”; with Kuming mice [3] (from Day 2), “attenuated analgesic effect from Day 2”. Moreover, in the series on Kuming mice [2], the “Analgesic experiment result, Mice hot plate method” value is listed as 6.949(5.682-8.500) mg/kg.
